According to patent US9809557B2 (priority 2011, dated 2017):
In brackets after ≈: the same amount, converted by molar mass.

Columns and labels:
[1] = Hydrolysis of the prodrugs in 80% human plasma; assay type: in vitro ADME; conditions: for half-life: read-out: t1/2 in plasma
Description: At 37±0.5° C., the hydrolysis rate of the prodrugs was measured in 80% human plasma. An appropriate aliquot (20-100 μL) of 1 mg/ml prodrug solution in methanol was transferred to 5.0 ml of preheated plasma. At appropriate time intervals, 300 μl sample aliquots were withdrawn and transferred to 600 μl acetonitrile and mixed thoroughly. After centrifugation at 13500 rpm for 5 min, the supernatant was analyzed by HPLC for parent drug and remaining prodrug.

[2] = Solubility of the prodrugs in PBS (67 mM phosphate buffer pH 7.4); conditions: for solubility thermodynamic: 67 mM phosphate buffer pH 7.4 (PBS), 37 °C, pH 7.4, aqueous buffer, thermodynamic from solid; for Sprodrug ± SD: PBS (67 mM phosphate buffer pH 7.4), 37° C.
Description: The determination of the solubility of a prodrug at different pH values of interest according to the present invention is carried by adding excess solid prodrug to a container containing a buffer solution with well-defined pH. The mixture is rotated at constant temperature until an equilibrium between solid prodrug and prodrug in solution has established (that is until the prodrug concentration in the supernatant remains constant). At each measurement the pH of the supernatant is controlled and, if needed, adjusted to the desired pH.
Suspensions of the prodrugs in 67 mM phosphate buffer pH 7.4 (PBS) were prepared by adding 10 mL PBS to approximately 5 mg prodrug. The suspensions were kept unstirred at 37° C. in an incubator hood. At appropriate time intervals over 23 days, about 500 μL samples were taken and after filtration (disposable syringe filters), the solutions were analyzed immediately by HPLC for parent drug and remaining prodrug. Quantitation of parent drug and prodrug was done from peak area measurements in relations to those of standards analysed by HPLC at the same conditions. […] For the diclofenac and ibuprofen prodrugs, the following method was used: Merck Hitachi L 6000 pump connected to Merck Hitachi 4250 UV detector. Reversed phase chromatography was performed using a C18 Gemini® RP column (150×4.6 mm, 5 μm particles) (Phenomenex, Torrance, Calif., USA) equipped with a SecurityGuard precolumn (Phenomenex, Torrance, Calif., USA). The flow rate was set at 1 mL/min and the column effluent was monitored at 230 nm. The mobile phase consisted of 35% (v/v) acetonitrile and 65% (v/v) of 0.1% (v/v) phosphoric acid pH 3.2. The retention times varied in the range of 3 to 30 min.
From the observed relatively stable concentration of dissolved prodrugs measured in the suspensions after 8-9 day up to 23 days, the solubilities of the prodrugs (Sprodrug) were determined.

[3] = Stability (cleavage to parent drug) of prodrug suspensions in PBS pH 7.4; assay type: physicochemical; conditions: for half-life at 0.5 mg/mL: 67 mM phosphate buffer (PBS), PBS pH 7.4, 37° C., read-out: t1/2 in PBS (converted); for apparent pseudo-zero-order rate constant k0: appearance of parent drug in PBS pH 7.4 suspension, 37° C.; for estimated pseudo first-order rate constant khyd: cleavage of prodrug in PBS pH 7.4, 37° C., calculated from k0 and Sprodrug
Description: Suspensions of the prodrugs in 67 mM phosphate buffer pH 7.4 (PBS) were prepared by adding 10 mL PBS to approximately 5 mg prodrug. The suspensions were kept unstirred at 37° C. in an incubator hood. At appropriate time intervals over 23 days, about 500 μL samples were taken and after filtration (disposable syringe filters), the solutions were analyzed immediately by HPLC for parent drug and remaining prodrug. Quantitation of parent drug and prodrug was done from peak area measurements in relations to those of standards analysed by HPLC at the same conditions.
From the observed relatively stable concentration of dissolved prodrugs measured in the suspensions after 8-9 day up to 23 days, the solubilities of the prodrugs (Sprodrug) were determined. In this time interval, the rate of appearance of parent drug was determined and an apparent pseudo-zero-order rate constant (k0) was obtained. By assuming that the dissolution rates were much faster than the conversion of the prodrugs to the parent drug, pseudo first-order rate constants (khyd) for cleavage of the prodrugs were calculated according to:

[4] = hydrolysis in 80% human plasma at 37° C.

Row | SMILES | half-life [1, 4] | solubility thermodynamic [2] | Sprodrug ± SD [2] | half-life at 0.5 mg/mL [3] | apparent pseudo-zero-order rate constant k0 [3] | estimated pseudo first-order rate constant khyd [3] | stability on incubation in plasma ([1]; 80% human plasma, 37° C., incubation for 10 h) | t1/2 in plasma [1, 4]
1 | COc1ccc2cc(C(C)C(=O)OCCn3ccnc3)ccc2c1 (stereo not shown) | 1.07 h | 146 ± 5 µg/mL (≈ 450 µM) | 0.45 ± 0.02 mM |  |  |  |  | 
2 | O=C(Cc1ccccc1Nc1c(Cl)cccc1Cl)OCCc1ccccn1 [DPX-1-0004, 2-(pyridin-2-yl)ethyl 2-(2-((2,6-dichlorophenyl)amino)phenyl)acetate] | 0.417 h | 3 ± 1 µg/mL (≈ 7.48 µM) | 0.007 ± 0.001 mM | 5 days | 1.1e-06 M/day | 0.15 day⁻¹ |  | 
3 | O=C(Cc1ccccc1Nc1c(Cl)cccc1Cl)OCCn1ccnc1 [DPX-1-0005, 2-(1H-imidazol-1-yl)ethyl 2-(2-(2,6-dichlorophenylamino)phenyl)acetate] |  | 1 µg/mL (≈ 2.56 µM) | 0.003 mM |  |  |  |  | 
4 | O=C(Cc1ccccc1Nc1c(Cl)cccc1Cl)OCCn1cnc2ccccc21 [DPX-1-0006, 2-(1H-benzo[d]imidazol-1-yl)ethyl 2-(2-((2,6-dichlorophenyl)amino)phenyl)acetate] | 0.05 h | 7 ± 2 µg/mL (≈ 15.9 µM) | 0.015 ± 0.004 mM | 4 days | 2.4e-06 M/day | 0.17 day⁻¹ |  | 
5 | O=C(Cc1ccccc1Nc1c(Cl)cccc1Cl)OCCn1ccnc1-c1ccccc1 [DPX-1-0007, 2-(2-phenyl-1H-imidazol-1-yl)ethyl 2-(2-((2,6-dichlorophenyl)amino)phenyl)acetate] | 0.817 h | 43 ± 2 µg/mL (≈ 92.2 µM) | 0.086 ± 0.003 mM | 242 days | 2.5e-07 M/day | 0.0029 day⁻¹ |  | 
6 | CCCc1nccn1CCOC(=O)Cc1ccccc1Nc1c(Cl)cccc1Cl [DPX-1-0008, 2-(2-propyl-1H-imidazol-1-yl)ethyl 2-(2-(2,6-dichlorophenylamino)phenyl)acetate] |  | 0.3 µg/mL (≈ 0.694 µM) | 0.0007 mM |  |  |  |  | 
7 | O=C(Cc1ccccc1Nc1c(Cl)cccc1Cl)OCCCCCCn1ccnc1 [DPX-1-0009, 6-(1H-imidazol-1-yl)hexyl 2-(2-(2,6-dichlorophenylamino)phenyl)acetate] |  | < 0.3 µg/mL | <0.0007 mM |  |  |  |  | 
8 | CCCc1nccn1CCCCCCOC(=O)Cc1ccccc1Nc1c(Cl)cccc1Cl [DPX-1-0010, 6-(2-propyl-1H-imidazol-1-yl)hexyl 2-(2-(2,6-dichiorophenylamino)phenyl)acetate] |  | < 0.4 µg/mL | <0.0008 mM |  |  |  |  | 
9 | Cn1ccnc1CCOC(=O)Cc1ccccc1Nc1c(Cl)cccc1Cl [DPX-1-0011, 2-(1-methyl-1H-imidazol-2-yl)ethyl 2-(2((2,6-dichlorophenyl)amino)phenyl)acetate] |  | 0.1 µg/mL (≈ 0.247 µM) | 0.0002 mM |  |  |  |  | 
10 | O=C(Cc1ccccc1Nc1c(Cl)cccc1Cl)OCCOCCn1ccnc1-c1ccccc1 [DPX-1-0012, 2-(2-(2-phenyl-1H-imidazol-1-yl)ethoxy)ethyl 2-(2-((2,6-dichlorophenyl)-amino)phenyl)acetate] |  | < 0.3 µg/mL | <0.0006 mM |  |  |  |  | 

Further lines, results first:

Row | half-life [1, 4] | solubility thermodynamic [2] | Sprodrug ± SD [2] | half-life at 0.5 mg/mL [3] | apparent pseudo-zero-order rate constant k0 [3] | estimated pseudo first-order rate constant khyd [3] | stability on incubation in plasma ([1]; 80% human plasma, 37° C., incubation for 10 h) | t1/2 in plasma [1, 4] | SMILES
11 |  | 0.01 µg/mL (≈ 0.0226 µM) | 2e-05 mM |  |  |  |  |  | CN(C)c1ccc(CCOC(=O)Cc2ccccc2Nc2c(Cl)cccc2Cl)cc1 [DPX-1-0001, 4-(dimethylamino)phenethyl 2-(2-(2,6-dichlorophenylamino)phenyl)acetate]
12 |  | < 0.1 µg/mL | <0.0002 mM |  |  |  |  |  | CN(CCOC(=O)Cc1ccccc1Nc1c(Cl)cccc1Cl)c1ccccc1 [DPX-1-0002, 2-(methyl(phenyl)amino)ethyl 2-(2-(2,6-dichlorophenylamino)phenyl)acetate]
13 |  | < 0.3 µg/mL | <0.0008 mM |  |  |  |  |  | COc1ccc2cc(C(C)C(=O)OCCc3ccc(N(C)C)cc3)ccc2c1 (stereo not shown) [DPX-2-0001, 4-(dimethylamino)phenethyl 2-(6-methoxynaphthalen-2-yl)propanoate]
14 |  | < 0.2 µg/mL | <0.0006 mM |  |  |  |  |  | COc1ccc2cc(C(C)C(=O)OCCN(C)c3ccccc3)ccc2c1 (stereo not shown) [DPX-2-0002, 2-(methyl(phenyl)amino)ethyl 2-(6-methoxynaphthalen-2-yl)propanoate]
15 |  | < 1 µg/mL | <0.003 mM |  |  |  |  |  | COc1ccc2cc(C(C)C(=O)OCCCN(C)c3ccccc3)ccc2c1 (stereo not shown) [DPX-2-0003, 3-(methyl(phenyl)amino)propyl 2-(6-methoxynaphthalen-2-yl)propanoate]
16 | 4.78 h | 19 ± 1 µg/mL (≈ 56.6 µM) | 0.052 ± 0.002 mM | 21 days | 1.7e-06 M/day | 0.033 day⁻¹ |  |  | COc1ccc2cc(C(C)C(=O)OCCc3ccccn3)ccc2c1 (stereo not shown) [DPX-2-0004, 2-(pyridin-2-yl)ethyl 2-(6-methoxynaphthalen-2-yl)propanoate]
17 | 12.6 h | 15 ± 2 µg/mL (≈ 48.2 µM) | 0.044 ± 0.004 mM | 32 days | 1e-06 M/day | 0.022 day⁻¹ |  |  | CC(C)Cc1ccc(C(C)C(=O)OCCc2ccccn2)cc1 (stereo not shown) [DPX-3-0004, 2-(pyridin-2-yl)ethyl 2-(4-isobutylphenyl)propanoate]
18 |  | 4 ± 0.2 µg/mL (≈ 11.4 µM) | 0.012 ± 0.001 mM | 15 days | 5.7e-07 M/day | 0.048 day⁻¹ | remained intact | stable | CC(C)Cc1ccc(C(C)C(=O)OCCn2cnc3ccccc32)cc1 (stereo not shown) [DPX-3-0006, 2-(1H-benzo[d]imidazol-1-yl)ethyl 2-(4-isobutylphenyl)propanoate]
19 |  | 1 µg/mL (≈ 2.66 µM) | 0.002 mM |  |  |  |  |  | CC(C)Cc1ccc(C(C)C(=O)OCCn2ccnc2-c2ccccc2)cc1 (stereo not shown) [DPX-3-0007, 2-(2-phenyl-1H-imidazol-1-yl)ethyl 2-(4-isobutylphenyl)propanoate]
